Laboratory results: ChEMBL document CHEMBL5500406, “Discovery of Novel Proteolysis-Targeting Chimera Molecules as Degraders of Programmed Cell Death-Ligand 1 for Breast Cancer Therapy” (J Med Chem, 2024)
Calls of active or inactive are those of the source. The calls are words filed in the database; no cut-off is given here.

Tests used:
[1] = biological target: T1, Protein cereblon/Programmed cell death 1 ligand 1 (Mus musculus) (UniProt Q9EP73+Q8C7D2); experiment: PROTAC activity at CRBN/PD-L1 in mouse 4T1 cells assessed as protein degradation at 1.25 to 20 uM incubated for 24 hrs by Western blot analysis; assay type: cell-based; conditions: dose 1.25-20 µM
T1 sequence (Q8C7D2 whole entry partner): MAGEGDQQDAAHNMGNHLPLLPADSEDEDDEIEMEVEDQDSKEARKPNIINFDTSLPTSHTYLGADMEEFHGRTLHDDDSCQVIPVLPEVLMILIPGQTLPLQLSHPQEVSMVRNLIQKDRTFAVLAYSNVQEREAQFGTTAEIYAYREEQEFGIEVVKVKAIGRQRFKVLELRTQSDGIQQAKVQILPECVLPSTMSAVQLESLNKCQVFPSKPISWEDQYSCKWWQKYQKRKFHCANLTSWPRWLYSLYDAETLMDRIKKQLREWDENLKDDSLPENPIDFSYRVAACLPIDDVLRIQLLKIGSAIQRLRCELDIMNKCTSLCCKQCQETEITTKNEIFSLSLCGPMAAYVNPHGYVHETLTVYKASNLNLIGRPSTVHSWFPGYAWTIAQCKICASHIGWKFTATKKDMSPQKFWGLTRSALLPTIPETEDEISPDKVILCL
T1 sequence (Q9EP73 19-290 limits assumed): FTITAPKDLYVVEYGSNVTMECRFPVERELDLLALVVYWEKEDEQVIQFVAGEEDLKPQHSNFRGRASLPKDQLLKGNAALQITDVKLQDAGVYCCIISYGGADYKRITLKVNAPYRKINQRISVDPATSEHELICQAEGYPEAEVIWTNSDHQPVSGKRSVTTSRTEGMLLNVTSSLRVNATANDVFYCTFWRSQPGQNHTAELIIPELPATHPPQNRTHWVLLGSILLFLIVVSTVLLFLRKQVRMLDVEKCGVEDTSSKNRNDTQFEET

[2] = tested on: 4T1; experiment: Antitumor activity against mouse 4T1 cells allografted in BALB/c mouse assessed as reduction in tumor volume at 10 mg/kg, ip qd for 15 days; assay type: functional, organism-based; conditions: time 15.0 day
[3] = tested on: 4T1; experiment: Antitumor activity against mouse 4T1 cells allografted in BALB/c mouse assessed as reduction in tumor weight at 10 mg/kg, ip qd for 15 days; assay type: functional, organism-based; conditions: time 15.0 day
[4] = Cytotoxicity against BALB/c mouse PBMC cells at <=0.312 uM incubated for 48 hrs by MTT assay; assay type: toxicity, cell-based
[5] = tested on: 4T1; experiment: Antitumor activity against mouse 4T1 cells assessed as decrease in cell viability incubated for 24 hrs by LDH assay; assay type: functional, cell-based
[6] = biological target: T1, Protein cereblon/Programmed cell death 1 ligand 1 (Mus musculus); experiment: PROTAC activity at CRBN/PD-L1 in mouse 4T1 cells at 0.156 to 5 uM incubated for 24 hrs by Western blot analysis; assay type: cell-based; conditions: dose 0.156-5 µM

SMILES: COc1nc(OCc2cccc(-c3ccccc3)c2C)ccc1CNCCNC(=O)CCCCCCCNC(=O)COc1ccc(C2CCC(=O)NC2=O)cc1 (stereo unspecified)
- Activity [1]: Active

SMILES: CC(=O)O[C@H]1C(=O)[C@@]2(C)[C@H]([C@H](OC(=O)c3ccccc3)[C@]3(O)C[C@H](OC(=O)[C@H](O)[C@@H](NC(=O)c4ccccc4)c4ccccc4)C(C)=C1C3(C)C)[C@]1(OC(C)=O)CO[C@@H]1C[C@@H]2O
- Activity [2]: Active
- Activity [3]: Active

SMILES: COc1nc(OCc2cccc(-c3ccccc3)c2C)ccc1CNCCNC(C)=O.Cl
- Activity [4]: Non-Toxic
- Activity [5]: Active
- Activity [6]: inactive
